ChEMBL document CHEMBL1201862, “PubChem BioAssay data set” (2004)
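1) Cells in 96-well plates. 2) Compound, 48 h, 5 concentrations. 3) Linear interpolation between surrounding doses. 4) Unreached endpoint = highest concentration. GI50 marks 50% less growth.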 Calls of active or inactive are those of the source. Cut-off read from the data, not from the text of the source: active = GI50 up to about 1.1 µM and inactive = higher.

Key:
Assay in all cases: NCI anticancer screen, dose series, 48 h
COLO 205 = tested on: COLO 205
HCT-15 = tested on: HCT-15
SK-MEL-28 = tested on: SK-MEL-28
ACHN = tested on: ACHN
EKVX = tested on: EKVX
HCT-116 = tested on: HCT-116
SN12C = tested on: SN12C
SK-MEL-5 = tested on: SK-MEL-5
SW-620 = tested on: SW-620
OVCAR-5 = tested on: OVCAR-5
HOP-18 = tested on: HOP-18
HT-29 = tested on: HT-29
786-0 = tested on: 786-0
SNB-75 = tested on: SNB-75
SR = tested on: SR
RPMI-8226 = tested on: RPMI-8226
DU-145 = tested on: DU-145
Hs-578T = tested on: Hs-578T

| Compound | GI50 (COLO 205) | GI50 (HCT-15) [µM] | GI50 (SK-MEL-28) | GI50 (ACHN) | GI50 (EKVX) | GI50 (HCT-116) | GI50 (SN12C) | GI50 (SK-MEL-5) | GI50 (SW-620) | GI50 (OVCAR-5) | GI50 (HOP-18) | GI50 (HT-29) | GI50 (786-0) | GI50 (SNB-75) | GI50 (SR) | GI50 (RPMI-8226) | GI50 (DU-145) | GI50 (Hs-578T) |
| --- | --- | --- | --- | --- | --- | --- | --- | --- | --- | --- | --- | --- | --- | --- | --- | --- | --- | --- |
| Cc1ccc(S(=O)(=O)N(/N=C(\N)Oc2ccc(Cl)cc2)C(=N)Oc2ccc(Cl)cc2)cc1 | > 100 µM (inactive) | > 100 | > 100 µM (inactive) | > 100 µM (inactive) | > 100 µM (inactive) | > 100 µM (inactive) | > 100 µM (inactive) | > 100 µM (inactive) | > 100 µM (inactive) | > 100 µM (inactive) | > 100 µM (inactive) | > 100 µM (inactive) | > 100 µM (inactive) | > 100 µM (inactive) | > 100 µM (inactive) |  |  |  |
| O=C1CCC[C@]2(CCCC(=O)N2)C1 | > 100 µM (inactive) | > 100 | > 100 µM (inactive) | > 100 µM (inactive) | > 100 µM (inactive) | > 100 µM (inactive) | > 100 µM (inactive) | > 100 µM (inactive) | > 100 µM (inactive) | > 100 µM (inactive) | > 100 µM (inactive) | > 100 µM (inactive) | > 100 µM (inactive) | 77.4 µM (inactive) | > 100 µM (inactive) | > 100 µM (inactive) |  |  |
| O=C1NC(=S)NC(=O)C1=Cc1ccc([N+](=O)[O-])o1 | 20.2 µM (inactive) | 17 | 25 µM (inactive) | 18.4 µM (inactive) | 21.1 µM (inactive) | 15 µM (inactive) | 16.3 µM (inactive) | 23.4 µM (inactive) | 23 µM (inactive) | 20.3 µM (inactive) | 20.7 µM (inactive) | 23.2 µM (inactive) | 19.3 µM (inactive) | 16.2 µM (inactive) | 19.6 µM (inactive) | 20.3 µM (inactive) |  |  |
| CC1(C)CC(N2CCN(C3CC(C)(C)NC(C)(C)C3)CC2)CC(C)(C)N1 |  | > 100 | > 100 µM (inactive) | > 100 µM (inactive) | > 100 µM (inactive) | > 100 µM (inactive) | > 100 µM (inactive) | > 100 µM (inactive) | > 100 µM (inactive) | > 100 µM (inactive) | > 100 µM (inactive) | > 100 µM (inactive) | > 100 µM (inactive) | > 100 µM (inactive) | > 100 µM (inactive) | > 100 µM (inactive) |  |  |
| O=C(/C=C/c1ccc(Cl)c(Cl)c1)c1ccccc1Cl | 16.1 µM (inactive) | 5.45 | 8.95 µM (inactive) | 15.3 µM (inactive) | 17.3 µM (inactive) | 4.71 µM (inactive) | 16.6 µM (inactive) | 13.7 µM (inactive) | 4.91 µM (inactive) | 16.8 µM (inactive) | 12.7 µM (inactive) | 6.07 µM (inactive) | 5.32 µM (inactive) | 9.14 µM (inactive) | 4.42 µM (inactive) | 8.49 µM (inactive) |  |  |
| CC1=C(N2CC2)C(=O)c2nc3n(c2C1=O)CCC3O (stereo unspecified) | 0.41 µM (active) | 13.6 | 0.252 µM (active) | 0.152 µM (active) | 0.438 µM (active) | 0.193 µM (active) | 0.508 µM (active) | 0.0216 µM (active) | 0.153 µM (active) | 0.423 µM (active) | 36.6 µM (inactive) | 0.973 µM (active) | 0.179 µM (active) | 0.485 µM (active) | 2.25 µM (inactive) | 0.472 µM (active) | 0.0111 µM (active) | 0.0239 µM (active) |
| C/C(=C\Cc1cc(O)ccc1O)CCc1c(C)cc(O)c(C=O)c1C [PANICEIN B3] | 17.7 µM (inactive) | 27.4 | 24 µM (inactive) | 17.5 µM (inactive) | 31.1 µM (inactive) | 19.3 µM (inactive) | 28.2 µM (inactive) | 17.4 µM (inactive) | 45.9 µM (inactive) |  | 17.8 µM (inactive) | 20.4 µM (inactive) | 25.5 µM (inactive) | 13.9 µM (inactive) | 28.4 µM (inactive) | > 100 µM (inactive) |  |  |
